From patent US11360080B2, “AhR-ROR-γt complex as a biomarker and therapeutic target for autoimmune disease and IL-17A-associated disease” (NATIONAL HEALTH RESEARCH INSTITUTES, priority 2018, dated 2022) come the findings set out here.

This series concerns GLK. The series is described as follows: GLK shRNA knockdown in T cells of Lck-GLK Tg mice, flow cytometry of IL-17A-producing T cells. It counts as cell-based, mouse. The conditions noted are these: anti-CD3 3 h, day 3 post-transfection. The protocol: (A) Hematoxylin and eosin-stained sections of indicated organs from mice. Arrows, infiltrating immune cells. Bar, 100 μm. (B) Levels of serum autoantibodies from mice were determined by ELISA assays. The levels are presented relative to the value from one of wild-type mice. (C) The serum levels of cytokines in mice were determined by ELISA assays. (D) The serum levels of autoantibodies in Lck-GLK and Lck-GLK/IL-17A KO mice were determined by ELISA assays. The levels are presented relative to the value from one of Lck-GLK mice. (E) IL-17A expression was attenuated by GLK shRNA. Murine primary splenic T cells were transfected with GFP-human GLK shRNA and a control GFP vector. The transfected T cells were stimulated with anti-mouse CD3 antibodies for 3 h and then determined by flow cytometry at day 3 post-transfection. […] WT, wild-type littermate controls; Lck-GLK, T-cell-specific GLK transgenic mice. Lck-GLK/IL-17A KO, Lck-GLK; IL-17A-deficient mice. ANA, anti-nuclear antibody; α-dsDNA, anti-dsDNA antibody; RF, rheumatoid factor. *, P value<0.05; **, P value<0.01 (two-tailed Student's t-test).
Human Jurkat T leukaemia cells (TIB-152) were cultured in RPMI-1640 medium (Invitrogen) containing 10% fetal calf serum plus penicillin (10 units per ml) and streptomycin ([…]). […]

Turning to “GLK shRNA: human GLK shRNA (5′-GTGCCACTTAGAATGTTTGAAA-3, SEQ ID NO: 7) subcloned into pSUPER-GFP vector”, the “IL-17A overproduction in T cells from Lck-GLK Tg mice” value is given as “abolished”.
